Source: patent US20220095619A1, “METHOD OF CONTROLLING WEEDS IN A CULTIVATION AREA OF DETERMINATE SOYBEAN” (SUMITOMO CHEMICAL COMPANY, LIMITED, priority 2019, published 2022)

Experiments:
[1] = test system: Williams 82/Indeterminate soybean; experiment: Example 3 pot test, pre-emergence soil spray: crop injury on soybean variety Williams 82; format: in vivo, Glycine max; conditions: 18 days after treatment
Description: (§1) The evaluation of the herbicidal effect and crop injury is classified into 0 to 100, where the numeral “0” indicates no or little difference in the state of germination or growth of weeds or soybean under test at the time of examination as comparison with untreated weeds or soybean, respectively and the numeral “100” indicates the complete death of weeds or soybean under test or the complete inhibition of their germination or growth of weeds or soybean under test.
(§2) Four varieties of determinate soybean, four varieties of indeterminate soybean, Palmer amaranth, kochia and large crabgrass were sown to a pot filled with a soil. On the next day, a trifludimoxazin spray liquid. (prepared by diluting an emuslfiable concentrate of trifludimoxazin with water) was uniformly sprayed onto the pot at the amount of 200 L, per hectare so that the application rate of trifludimoxazin might be 25 and 50 g per hectare. 18 days after treatment, herbicidal effects on weeds and injury on soybeans were investigated. As a result, the herbicidal effect on each of the three weeds was 100.

[2] = test system: determinate soybean, indeterminate soybean, semi-determinate soybean; experiment: Example 1 pot test, spray two days after sowing: injury on soybeans; format: in vivo, Glycine max; conditions: 25 or 50 g per hectare; applied two days after sowing; 21 days after the treatment
Description: as §1
(§3) A pot is filled with a soil, and the determinate soybean, indeterminate soybean, semi-determinate soybean, palmer amaranth, waterhemp, kochia, common ragweed and marestail are sown thereto. Two days later, trifludimoxazin spray liquid (prepared by diluting trifludimoxazin formulation an aqueous suspension concentrate containing 500 g/L of trifludimoxazin) with water) is uniformly applied onto the pot using a sprayer at the amount of 200 L per hectare so that the application rate of trifludimoxazin may be 25 or 50 g per hectare. 21 days after the treatment, herbicidal effects and injuries on various soybeans are investigated.

[3] = test system: Fukunari/Determinate soybean; experiment: Example 3 pot test, pre-emergence soil spray: crop injury on soybean variety Fukunari; format: in vivo, Glycine max; conditions: 18 days after treatment
Description: as §1, §2

[4] = test system: Palmer amaranth; experiment: Example 3 pot test, pre-emergence soil spray: herbicidal effect on Palmer amaranth; format: in vivo, Amaranthus palmeri; conditions: 25 and 50 g per hectare, 18 days after treatment, 100 = complete death
Description: as §1, §2

[5] = test system: large crabgrass; experiment: Example 3 pot test, pre-emergence soil spray: herbicidal effect on large crabgrass; format: in vivo, Digitaria sanguinalis; conditions: 25 and 50 g per hectare, 18 days after treatment, 100 = complete death
Description: as §1, §2

[6] = test system: Harosoy/Indeterminate soybean; experiment: Example 3 pot test, pre-emergence soil spray: crop injury on soybean variety Harosoy; format: in vivo, Glycine max; conditions: 18 days after treatment
Description: as §1, §2

[7] = test system: Tambaguro/Determinate soybean; experiment: Example 3 pot test, pre-emergence soil spray: crop injury on soybean variety Tambaguro; format: in vivo, Glycine max; conditions: 18 days after treatment, 0 = no or little difference from untreated, 100 = complete death
Description: as §1, §2

[8] = test system: Kurosengoku/Indeterminate soybean; experiment: Example 3 pot test, pre-emergence soil spray: crop injury on soybean variety Kurosengoku; format: in vivo, Glycine max; conditions: 18 days after treatment
Description: as §1, §2

[9] = test system: palmer amaranth, waterhemp, kochia, common ragweed and marestail; experiment: Example 1 pot test, spray two days after sowing: herbicidal effect on weeds; format: in vivo; conditions: 25 or 50 g per hectare; applied two days after sowing; 21 days after the treatment
Description: as §1, §3

[10] = test system: Toyomusume/Determinate soybean; experiment: Example 3 pot test, pre-emergence soil spray: crop injury on soybean variety Toyomusume; format: in vivo, Glycine max; conditions: 18 days after treatment
Description: as §1, §2

[11] = test system: kochia; experiment: Example 3 pot test, pre-emergence soil spray: herbicidal effect on kochia; format: in vivo, Kochia scoparia; conditions: 25 and 50 g per hectare, 18 days after treatment, 100 = complete death
Description: as §1, §2

[12] = test system: Wild soybean/Indeterminate; experiment: Example 3 pot test, pre-emergence soil spray: crop injury on wild soybean; format: in vivo, Glycine soja; conditions: 18 days after treatment
Description: as §1, §2

[13] = test system: determinate soybean, indeterminate soybean, and semi-determinate soybean; experiment: Example 2 pot test, spray one day before soybean sowing: injury on soybeans; format: in vivo, Glycine max; conditions: 25 or 50 g per hectare; applied one day before sowing soybeans; 21 days after sowing soybeans
Description: as §1
(§4) A pot is filled with a soil, and then Palmer amaranth, waterhemp, kochia, common ragweed and marestail are sown thereto. On the same day, trifludimoxazin spray liquid (prepared by diluting trifludimoxazin formulation (an aqueous suspension concentrate containing 500 g/L of trifludimoxazin) with water) is uniformly applied onto the pot using a sprayer at the amount of 200 L per hectare so that the application rate of trifludimoxazin may be 25 or 50 g per hectare. On the next day, determinate soybean, indeterminate soybean, and semi-determinate soybean are sown. 21 days after sowing soybeans, herbicidal effects and injuries on various soybeans are investigated.

[14] = test system: Sachiyutaka/Determinate soybean; experiment: Example 3 pot test, pre-emergence soil spray: crop injury on soybean variety Sachiyutaka; format: in vivo, Glycine max; conditions: 18 days after treatment
Description: as §1, §2

[15] = test system: palmer amaranth, waterhemp, kochia, common ragweed and marestail; experiment: Example 2 pot test, spray on day of weed sowing, before soybean sowing: herbicidal effect on weeds; format: in vivo; conditions: 25 or 50 g per hectare; applied on day of weed sowing; 21 days after sowing soybeans
Description: as §1, §4

C#CCN1C(=O)C(F)(F)Oc2cc(F)c(-n3c(=O)n(C)c(=S)n(C)c3=O)cc21 [trifludimoxazin]
injury on soybeans (0 to 100 scale) ([1]; 25 g/hectare): 40
injury on soybeans (0 to 100 scale) ([1]; 50 g/hectare): 80
injuries on various soybeans (comparison of growth habits) [2]: injury on determinate soybean is less than those on indeterminate soybean and semi-determinate soybean
injury on soybeans (0 to 100 scale) ([3]; 25 g/hectare): 0
injury on soybeans (0 to 100 scale) ([3]; 50 g/hectare): 0
herbicidal effect (0 to 100 scale) [4]: 100
herbicidal effect (0 to 100 scale) [5]: 100
injury on soybeans (0 to 100 scale) ([6]; 25 g/hectare): 30
injury on soybeans (0 to 100 scale) ([6]; 50 g/hectare): 50
injury on soybeans (0 to 100 scale) ([7]; 25 g/hectare): 0
injury on soybeans (0 to 100 scale) ([7]; 50 g/hectare): 10
injury on soybeans (0 to 100 scale) ([8]; 25 g/hectare): 30
injury on soybeans (0 to 100 scale) ([8]; 50 g/hectare): 60
herbicidal effects on weeds [9]: High herbicidal effects on all weeds
injury on soybeans (0 to 100 scale) ([10]; 25 g/hectare): 0
injury on soybeans (0 to 100 scale) ([10]; 50 g/hectare): 5
herbicidal effect (0 to 100 scale) [11]: 100
injury on soybeans (0 to 100 scale) ([12]; 25 g/hectare): 100
injury on soybeans (0 to 100 scale) ([12]; 50 g/hectare): 100
injuries on various soybeans (comparison of growth habits) [13]: injury on determinate soybean is less than those on indeterminate soybean and semi-determinate soybean
injury on soybeans (0 to 100 scale) ([14]; 25 g/hectare): 0
injury on soybeans (0 to 100 scale) ([14]; 50 g/hectare): 0
herbicidal effects on weeds [15]: High effects on all weeds
